Data published in ChEMBL document CHEMBL1201862, “PubChem BioAssay data set” (2004).
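Each compound was tested at five concentrations against cells in 96-well plates for 48 hours. GI50 is the concentration that inhibits growth by half.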 Activity calls are given as the source filed them. Rule as the data show it: active = GI50 up to about 1.1 µM and inactive = higher.

Assays:
Test in all cases: NCI tumour cell line growth inhibition, 48 h
OVCAR-8 = tested on: OVCAR-8
K562 = tested on: K562
SF-539 = tested on: SF-539
SN12C = tested on: SN12C
Malme-3M = tested on: Malme-3M
SNB-19 = tested on: SNB-19
UACC-62 = tested on: UACC-62
NCI-H226 = tested on: NCI-H226
HOP-92 = tested on: HOP-92
ACHN = tested on: ACHN
A549 = tested on: A549
MOLT-4 = tested on: MOLT-4
786-0 = tested on: 786-0
HL-60 = tested on: HL-60
U-251 = tested on: U-251
TK-10 = tested on: TK-10
NCI-H460 = tested on: NCI-H460

Measured: GI50

COC(=O)c1cc(C(=O)OC)c(CC(=O)C(=O)NC2C3CC4CC(C3)CC2C4)nc1CC(=O)C(=O)NC1C2CC3CC(C2)CC1C3 (centres undefined)
inactive: OVCAR-8 > 100 µM | K562 > 100 µM | SF-539 > 100 µM | SN12C > 100 µM | Malme-3M > 100 µM | SNB-19 > 100 µM | UACC-62 > 100 µM | NCI-H226 > 100 µM | HOP-92 74.6 µM | ACHN > 100 µM | A549 > 100 µM | MOLT-4 37.3 µM | 786-0 > 100 µM | HL-60 > 100 µM | U-251 > 100 µM | TK-10 > 100 µM | NCI-H460 > 100 µM

O=C1c2ccccc2N2OC3(N4CCOCC4)CCCC3C12c1ccccc1 (centres undefined)
inactive: OVCAR-8 > 100 µM | K562 > 100 µM | SF-539 > 100 µM | SN12C > 100 µM | Malme-3M > 100 µM | SNB-19 > 100 µM | UACC-62 93.1 µM | NCI-H226 > 100 µM | HOP-92 53.3 µM | ACHN > 100 µM | A549 > 100 µM | MOLT-4 > 100 µM | 786-0 > 100 µM | HL-60 77.1 µM | U-251 > 100 µM

Clc1cccc(C2SCc3nc4ccccc4n32)c1 (centres undefined)
inactive: OVCAR-8 24.8 µM | K562 14.9 µM | SF-539 21.1 µM | SN12C 13.8 µM | Malme-3M 22 µM | UACC-62 13.8 µM | NCI-H226 12.8 µM | HOP-92 11.5 µM | ACHN 18.4 µM | A549 42.9 µM | MOLT-4 23.1 µM | 786-0 > 10 µM | HL-60 7.57 µM | U-251 16 µM | TK-10 25.6 µM | NCI-H460 27.8 µM

O=C(Nc1ccc(Br)cc1)C(=O)C(C(=O)c1ccc(Cl)c(Cl)c1)C1OC(=O)c2ccccc21 (centres undefined)
inactive: OVCAR-8 12.3 µM | K562 12.5 µM | SN12C 20.2 µM | Malme-3M 10.4 µM | SNB-19 16.7 µM | UACC-62 13.4 µM | NCI-H226 4.56 µM | HOP-92 15 µM | ACHN 16.3 µM | A549 16.4 µM | MOLT-4 10.4 µM | 786-0 15 µM | HL-60 17.2 µM | U-251 8.97 µM | TK-10 20.2 µM | NCI-H460 15.1 µM

COC(=O)/C=C(C)/C=C/C1OC(C)OCC1O (centres undefined)
inactive: OVCAR-8 > 100 µM | K562 > 100 µM | SF-539 > 100 µM | SN12C > 100 µM | Malme-3M > 100 µM | SNB-19 > 100 µM | UACC-62 > 100 µM | NCI-H226 > 100 µM | HOP-92 > 100 µM | ACHN > 100 µM | A549 > 100 µM | MOLT-4 > 100 µM | 786-0 > 100 µM | HL-60 > 100 µM | U-251 > 100 µM | TK-10 > 100 µM | NCI-H460 > 100 µM

Nc1nc2c(ncn2Cc2ccccc2CCO)c(=O)[nH]1
inactive: OVCAR-8 > 100 µM | K562 > 100 µM | SN12C > 100 µM | Malme-3M > 100 µM | SNB-19 > 100 µM | UACC-62 > 100 µM | NCI-H226 41 µM | HOP-92 > 100 µM | ACHN > 100 µM | A549 > 100 µM | MOLT-4 > 100 µM | 786-0 > 100 µM | HL-60 > 100 µM | U-251 > 100 µM | TK-10 > 100 µM | NCI-H460 > 100 µM

Oc1nc2cc(Cl)ccc2nc1/C(=N\Nc1ccccc1)C(O)c1ccc(Cl)c(Cl)c1 (centres undefined)
inactive: OVCAR-8 > 100 µM | K562 > 100 µM | SF-539 > 100 µM | SN12C 36.7 µM | Malme-3M > 100 µM | SNB-19 > 100 µM | UACC-62 > 100 µM | NCI-H226 > 100 µM | HOP-92 > 100 µM | ACHN > 100 µM | A549 > 100 µM | MOLT-4 > 100 µM | 786-0 > 100 µM | HL-60 > 100 µM | U-251 > 100 µM | TK-10 > 100 µM | NCI-H460 > 100 µM

Cc1csc2nc(-c3ccncc3)cn12
inactive: OVCAR-8 > 100 µM | K562 > 44 µM | SF-539 > 44 µM | SN12C > 100 µM | Malme-3M > 100 µM | SNB-19 > 100 µM | UACC-62 > 100 µM | NCI-H226 > 100 µM | HOP-92 > 100 µM | ACHN > 100 µM | A549 > 100 µM | MOLT-4 > 100 µM | 786-0 15.8 µM | HL-60 > 36.3 µM | U-251 > 46.9 µM | TK-10 > 100 µM | NCI-H460 > 43.5 µM

CCN(CC)c1ccc(/N=N/c2ccc(-c3nc4cccn(C)c-4n3)cc2)cc1
inactive: OVCAR-8 10.3 µM | K562 2.86 µM | SF-539 12.7 µM | SN12C 6.04 µM | Malme-3M 12.1 µM | SNB-19 15.6 µM | UACC-62 11.9 µM | NCI-H226 19.8 µM | HOP-92 11.7 µM | A549 6.62 µM | MOLT-4 2.23 µM | 786-0 4.09 µM | HL-60 1.75 µM | U-251 3.92 µM | TK-10 27.9 µM | NCI-H460 5.07 µM

Cc1ccc(SC(C)/C=C/NNC2=NN=C(c3ccccc3)C(c3ccccc3)N2)cc1 (centres undefined)
inactive: OVCAR-8 31.7 µM | K562 36.9 µM | SF-539 34.2 µM | SN12C 36.4 µM | Malme-3M 49.8 µM | UACC-62 14.9 µM | NCI-H226 29 µM | HOP-92 20 µM | ACHN 29.6 µM | A549 33.1 µM | MOLT-4 13.4 µM | 786-0 39.6 µM | HL-60 13 µM | TK-10 75.7 µM | NCI-H460 33.1 µM

COC(=O)/C(=N/NC(C)(C)C)C(C(=O)C=C(C)C)C(=O)C(=O)Nc1ccc(Cl)cc1C (centres undefined)
inactive: OVCAR-8 > 100 µM | K562 > 100 µM | SF-539 > 100 µM | SN12C > 100 µM | Malme-3M > 100 µM | SNB-19 > 100 µM | UACC-62 > 100 µM | NCI-H226 99.3 µM | ACHN > 100 µM | A549 > 100 µM | MOLT-4 > 100 µM | 786-0 > 100 µM | HL-60 > 100 µM | U-251 > 100 µM | TK-10 > 100 µM | NCI-H460 > 100 µM

CC1(C)OC2C(=O)OC(COCc3ccccc3)C2O1 (centres undefined)
inactive: OVCAR-8 > 100 µM | K562 > 100 µM | SF-539 > 100 µM | SN12C > 100 µM | Malme-3M > 100 µM | UACC-62 > 100 µM | NCI-H226 > 100 µM | HOP-92 > 100 µM | ACHN > 100 µM | A549 > 100 µM | MOLT-4 > 100 µM | 786-0 > 100 µM | HL-60 > 100 µM | U-251 > 100 µM | TK-10 > 100 µM | NCI-H460 > 100 µM
